Experimental data as given in patent US9789181B2, “PAN-DR binding polypeptides and uses thereof” (Epimmune Inc., priority 2009, dated 2017).
pIC50: −log10 of the molar value. Where no end group is shown, it is not given here.

Molecular target: HLA DRB1 *0101 (Homo sapiens, UniProt P01903+P01911, A100R/D57E/F55L/F60I/F76Y/I96L/L162R/M171V/P40L/Q125E/R42F/V115G/Y59C)
Assay: IC50nM to purified HLA | DRB1 *0101
Procedure: (§1) Table printed on a drawing sheet, FIG. 1 (contd.)
Head of the field: IC50nM to purified HLA | DRB1 *0101
(§2) First copying reader's note: Continued from the preceding sheet of FIG. 1; decimal commas are used, the analog names give the substituted residues and positions in PADRE, and some values are printed in italics or bold and some SEQ ID NOs bold and underlined without a legend on this sheet.
Where the first naming reader finds the target: head: IC50nM to purified HLA | DRB1 *0101

Row | Sequence | pIC50
1 | AAAHFVAAWTLKAEA [SEQ ID NO: 36] | 8.29
2 | AAAEFVAAWTLKAAA [SEQ ID NO: 45] | 8.60

Molecular target: HLA DRB1 *0301 (Homo sapiens, UniProt P01903+P01911, A100K/A102G/A103R/A169T/F55Y/I96L/K41T/L162R/M171V/P40S/Q125H/Q178H/Q39Y/R42S/S66N/T106N/T262R/W38E/Y61H)
Assay: IC50nM to purified HLA | DRB1 *0301
Procedure: as §1
Head of the field: IC50nM to purified HLA | DRB1 *0301
as §2
Where the first naming reader finds the target: head: IC50nM to purified HLA | DRB1 *0301

Sequence of HLA DRB1 *0301 (P01903 26-254 limits assumed, other chains not shown): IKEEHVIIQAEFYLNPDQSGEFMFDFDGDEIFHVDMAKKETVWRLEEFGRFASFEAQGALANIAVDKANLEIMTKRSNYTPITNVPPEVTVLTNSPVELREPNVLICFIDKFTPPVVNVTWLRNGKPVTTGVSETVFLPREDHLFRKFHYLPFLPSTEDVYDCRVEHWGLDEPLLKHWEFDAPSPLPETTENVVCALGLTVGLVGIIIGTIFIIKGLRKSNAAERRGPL

Row | Sequence | pIC50
3 | AAAEFVAAWTLHAAA [SEQ ID NO: 46] | 6.87
4 | AAAEFVAAWTLKAAA [SEQ ID NO: 45] | 6.77
5 | AAAHFVAANTLKADA [SEQ ID NO: 34] | 5.51

Molecular target: HLA DRB1 *0401 (Homo sapiens, UniProt P01903+P01911, A100K/A169T/F76Y/I96L/K127E/L162R/M171V/N62H/P40V/Q125Y/R42H/S133A/S149N/S66Y/V115G/V209L/W38E)
Assay: IC50nM to purified HLA | DRB1 *0401
Procedure: as §1
Head of the field: IC50nM to purified HLA | DRB1 *0401
as §2
Where the first naming reader finds the target: head: IC50nM to purified HLA | DRB1 *0401

Row | Sequence | pIC50
6 | AAAKFVAAWTLKAEA [SEQ ID NO: 35] | 8.19
7 | AAAEFVAAWTLHAAA [SEQ ID NO: 46] | 8.51
8 | AAAHFVAAWTLKAEA [SEQ ID NO: 36] | 8.19
9 | AAAEFVAAWTLKAAA [SEQ ID NO: 45] | 8.42
10 | AAAHFVAANTLKADA [SEQ ID NO: 34] | 7.68

Molecular target: HLA DRB1 *0404 (Homo sapiens, UniProt P01903+P01911, A100R/A169T/F76Y/I96L/K127E/L162R/M171V/N62H/P40V/Q125Y/R42H/S133A/S149N/S66Y/V209L/W38E)
Assay: IC50nM to purified HLA | DRB1 *0404
Procedure: as §1
Head of the field: IC50nM to purified HLA | DRB1 *0404
as §2
Where the first naming reader finds the target: head: IC50nM to purified HLA | DRB1 *0404

Row | Sequence | pIC50
11 | AAAEFVAAWTLHAAA [SEQ ID NO: 46] | 8.39
12 | AAAEFVAAWTLKAAA [SEQ ID NO: 45] | 8.55
13 | AAAHFVAANTLKADA [SEQ ID NO: 34] | 7.89

Molecular target: HLA DRB1 *0802 (Homo sapiens, UniProt P01903+P01911, A100R/A103L/A169T/F76Y/H45Y/I96F/K41T/L162R/M171V/P40S/Q125H/Q178H/Q39Y/Q99D/R218S/R42G/S66Y/V115G/W38E)
Assay: IC50nM to purified HLA | DRB1 *0802
Procedure: as §1
Head of the field: IC50nM to purified HLA | DRB1 *0802
as §2
Where the first naming reader finds the target: head: IC50nM to purified HLA | DRB1 *0802

Row | Sequence | pIC50
14 | AAAKFVAAWTLKAEA [SEQ ID NO: 35] | 7.68
15 | AAAEFVAAWTLHAAA [SEQ ID NO: 46] | 7.62
16 | AAAHFVAAWTLKAEA [SEQ ID NO: 36] | 7.66
17 | AAAEFVAAWTLKAAA [SEQ ID NO: 45] | 7.80
18 | AAAHFVAANTLKADA [SEQ ID NO: 34] | 7.17

Molecular target: HLA DRB1 *0901 (Homo sapiens, UniProt P01903+P01911, A100R/A103E/D57H/D86V/F55Y/F60I/F76Y/I96F/K127E/L162R/M171V/P40D/Q125H/Q99R/R33Q/R42F/S133A/S66N/T210M/V115G/W38K/Y107V/Y59G/Y89S)
Assay: IC50nM to purified HLA | DRB1 *0901
Procedure: as §1
Head of the field: IC50nM to purified HLA | DRB1 *0901
as §2
Where the first naming reader finds the target: head: IC50nM to purified HLA | DRB1 *0901

Row | Sequence | pIC50
19 | AAAKFVAAWTLKAEA [SEQ ID NO: 35] | 7.39
20 | AAAEFVAAWTLHAAA [SEQ ID NO: 46] | 7.36
21 | AAAHFVAAWTLKAEA [SEQ ID NO: 36] | 7.36
22 | AAAEFVAAWTLKAAA [SEQ ID NO: 45] | 7.39
23 | AAAHFVAANTLKADA [SEQ ID NO: 34] | 7.22

Molecular target: HLA DRB1 *1101 (Homo sapiens, UniProt P01903+P01911, A100R/A169T/A87E/I96F/K41T/L162R/M171V/P40S/Q125H/Q178H/Q39Y/Q99D/R42S/S66Y/T262R/V115G/W38E)
Assay: IC50nM to purified HLA | DRB1 *1101
Procedure: as §1
Head of the field: IC50nM to purified HLA | DRB1 *1101
as §2
Where the first naming reader finds the target: head: IC50nM to purified HLA | DRB1 *1101

Sequence of HLA DRB1 *1101 (P01903 26-254 limits assumed, other chains not shown): as above

Row | Sequence | pIC50
24 | AAAKFVAAWTLKAEA [SEQ ID NO: 35] | 7.44
25 | AAAEFVAAWTLHAAA [SEQ ID NO: 46] | 7.42
26 | AAAHFVAAWTLKAEA [SEQ ID NO: 36] | 7.28
27 | AAAEFVAAWTLKAAA [SEQ ID NO: 45] | 7.35
28 | AAAHFVAANTLKADA [SEQ ID NO: 34] | 7.04

Molecular target: HLA DRB1 *1501 (Homo sapiens, UniProt P01903+P01911)
Assay: IC50nM to purified HLA | DRB1 *1501
Procedure: as §1
Head of the field: IC50nM to purified HLA | DRB1 *1501
as §2
Where the first naming reader finds the target: head: IC50nM to purified HLA | DRB1 *1501

Row | Sequence | pIC50
29 | AAAKFVAAWTLKAEA [SEQ ID NO: 35] | 7.64
30 | AAAHFVAAWTLKAEA [SEQ ID NO: 36] | 7.70
31 | AAAEFVAAWTLKAAA [SEQ ID NO: 45] | 7.25
32 | AAAHFVAANTLKADA [SEQ ID NO: 34] | 6.76

Molecular target: HLA DRB4 *0101 (Homo sapiens, UniProt P01903+P13762, G164S)
Assay: IC50nM to purified HLA | DRB4 *0101
Procedure: as §1
Head of the field: IC50nM to purified HLA | DRB4 *0101
as §2
Where the first naming reader finds the target: head: IC50nM to purified HLA | DRB4 *0101

Sequence of HLA DRB4 *0101 (P01903 26-254 limits assumed): as the sequence (P01903 26-254 limits assumed, other chains not shown) above
Sequence of HLA DRB4 *0101 (P13762 whole entry G164S): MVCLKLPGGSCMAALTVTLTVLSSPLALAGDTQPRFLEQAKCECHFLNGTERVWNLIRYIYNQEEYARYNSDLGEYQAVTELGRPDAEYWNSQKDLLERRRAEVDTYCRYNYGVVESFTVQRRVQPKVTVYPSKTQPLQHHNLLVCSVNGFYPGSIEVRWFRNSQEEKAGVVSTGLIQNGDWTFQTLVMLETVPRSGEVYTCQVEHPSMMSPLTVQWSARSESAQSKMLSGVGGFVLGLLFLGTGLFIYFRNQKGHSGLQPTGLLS

Row | Sequence | pIC50
33 | AAAKFVAAWTLKAEA [SEQ ID NO: 35] | 6.15
34 | AAAHFVAAWTLKAEA [SEQ ID NO: 36] | 6.17
35 | AAAEFVAAWTLKAAA [SEQ ID NO: 45] | 6.48

Molecular target: HLA DRB1 *0405 (Homo sapiens, UniProt P01903+P01911, A100R/A169T/D86S/F76Y/I96L/K127E/L162R/M171V/N62H/P40V/Q125Y/R42H/S133A/S149N/S66Y/V115G/V209L/W38E)
Assay: IC50nM to purified HLA | DRB1 *0405
Procedure: as §1
Head of the field: IC50nM to purified HLA | DRB1 *0405
as §2
Where the first naming reader finds the target: head: IC50nM to purified HLA | DRB1 *0405

Row | Sequence | pIC50
36 | AAAKFVAAWTLKAEA [SEQ ID NO: 35] | 8.08
37 | AAAEFVAAWTLHAAA [SEQ ID NO: 46] | 7.57
38 | AAAEFVAAWTLKAAA [SEQ ID NO: 45] | 8.01
39 | AAAHFVAANTLKADA [SEQ ID NO: 34] | 7.44

Molecular target: HLA DRB1 *0701 (Homo sapiens, UniProt P01903+P01911, A100R/A102G/A103Q/D57E/D86V/E43K/F76Y/K127E/L162R/M171V/P40G/Q125H/Q99D/R33Q/R42Y/R54Q/S133A/S66F/T210M/V115G/Y107V/Y59L/Y89S)
Assay: IC50nM to purified HLA | DRB1 *0701
Procedure: as §1
Head of the field: IC50nM to purified HLA | DRB1 *0701
as §2
Where the first naming reader finds the target: head: IC50nM to purified HLA | DRB1 *0701

Row | Sequence | pIC50
40 | AAAEFVAAWTLHAAA [SEQ ID NO: 46] | 7.01
41 | AAAHFVAANTLKADA [SEQ ID NO: 34] | 7.06

Molecular target: HLA DRB1 *1302 (Homo sapiens, UniProt P01903+P01911, A100E/A169T/K41T/L162R/M171V/P40S/Q125H/Q178H/Q39Y/Q99D/R42S/S66N/T262R/V115G/W38E/Y61H)
Assay: IC50nM to purified HLA | DRB1 *1302
Procedure: as §1
Head of the field: IC50nM to purified HLA | DRB1 *1302
as §2
Where the first naming reader finds the target: head: IC50nM to purified HLA | DRB1 *1302

Sequence of HLA DRB1 *1302 (P01903 26-254 limits assumed, other chains not shown): as the sequence (P01903 26-254 limits assumed, other chains not shown) above

Row | Sequence | pIC50
42 | AAAEFVAAWTLHAAA [SEQ ID NO: 46] | 5.94
43 | AAAHFVAAWTLKAEA [SEQ ID NO: 36] | 5.96
44 | AAAEFVAAWTLKAAA [SEQ ID NO: 45] | 6.08

Molecular target: HLA DRB5 *0101 (Homo sapiens, UniProt P01903+Q30154)
Assay: IC50nM to purified HLA | DRB5 *0101
Procedure: as §1
Head of the field: IC50nM to purified HLA | DRB5 *0101
as §2
Where the first naming reader finds the target: head: IC50nM to purified HLA | DRB5 *0101

Row | Sequence | pIC50
45 | AAAKFVAAWTLKAEA [SEQ ID NO: 35] | 7.77
46 | AAAEFVAAWTLHAAA [SEQ ID NO: 46] | 7.32
47 | AAAHFVAAWTLKAEA [SEQ ID NO: 36] | 7.74
48 | AAAEFVAAWTLKAAA [SEQ ID NO: 45] | 8.17
49 | AAAHFVAANTLKADA [SEQ ID NO: 34] | 7.74
